Measurements taken from US20260285850A1, “SUBSTITUTED OXAZOLIDINONES AND IMIDAZOLINONES AS HERBICIDES” (FMC CORPORATION, priority 2023, published 2026).

Tests used:
Assay type in all cases: in vivo
[1] = test system: wheat (Triticum aestivum); assay: Test A preemergence soil spray, visual injury rating 0-100; settings: 10 days, 0 = no effect, 100 = complete control
In short: (§1)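 Preemergence directed soil spray or postemergence spray (2-10 cm, 1-2 leaf); loam/sand mix; compound in non-phytotoxic solvent + surfactant. Greenhouse, 10 d. Visual injury vs untreated, 0 = none, 100 = complete control.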

[2] = test system: blackgrass (Alopecurus myosuroides); assay: as above; settings: 10 days, 0 = no effect, 100 = complete control
In short: as §1

[3] = test system: ragweed (common ragweed, Ambrosia artemisiifolia); assay: as above; settings: 10 days, 0 = no effect, 100 = complete control
In short: as §1

[4] = test system: soybean (Glycine max); assay: as above; settings: 10 days, 0 = no effect, 100 = complete control
In short: as §1

[5] = test system: palmer (palmer amaranth, palmer pigweed, Amaranthus palmeri); assay: as above; settings: 10 days, 0 = no effect, 100 = complete control
In short: as §1

[6] = test system: oat, wild (wild oat, Avena fatua); assay: as above; settings: 10 days, 0 = no effect, 100 = complete control
In short: as §1

[7] = test system: barnyardgrass (Echinochloa crus-galli); assay: as above; settings: 10 days, 0 = no effect, 100 = complete control
In short: as §1

[8] = test system: kochia (Bassia scoparia); assay: as above; settings: 10 days, 0 = no effect, 100 = complete control
In short: as §1

[9] = test system: ryegrass, Italian (italian ryegrass, Lolium multiflorum); assay: as above; settings: 10 days, 0 = no effect, 100 = complete control
In short: as §1

[10] = test system: corn (Zea mays); assay: as above; settings: 10 days, 0 = no effect, 100 = complete control
In short: as §1

[11] = test system: green foxtail (Setaria viridis); assay: as above; settings: 10 days, 0 = no effect, 100 = complete control
In short: as §1

[12] = test system: rice (Oryza sativa); assay: Test B flooded paddy test, visual plant response rating 0-100; settings: 250 g ai/ha, Flood, applied to paddy water, evaluated after 13 days
In short: (§2)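 Visual evaluation after 13 days. Water-applied treatment, 3 cm flood depth held constant, plants at 2-leaf stage at treatment.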

[13] = test system: ducksalad (Heteranthera limosa); assay: as above; settings: 250 g ai/ha, Flood, applied to paddy water, evaluated after 13 days
In short: as §2

[14] = test system: barnyardgrass (Echinochloa crusgalli); assay: as above; settings: 250 g ai/ha, Flood, applied to paddy water, evaluated after 13 days
In short: as §2

[15] = test system: sedge, umbrella (small-flower umbrella sedge, Cyperus difformis); assay: as above; settings: 250 g ai/ha, Flood, applied to paddy water, evaluated after 13 days
In short: as §2

[16] = test system: wheat (Triticum aestivum); assay: Test A postemergence application, visual injury rating 0-100; settings: Postemergence
In short: as §1

[17] = test system: blackgrass (Alopecurus myosuroides); assay: as above; settings: Postemergence
In short: as §1

[18] = test system: ragweed (common ragweed, Ambrosia artemisiifolia); assay: as above; settings: Postemergence
In short: as §1

[19] = test system: soybean (Glycine max); assay: as above; settings: Postemergence
In short: as §1

[20] = test system: palmer (palmer amaranth, palmer pigweed, Amaranthus palmeri); assay: as above; settings: Postemergence
In short: as §1

[21] = test system: oat, wild (wild oat, Avena fatua); assay: as above; settings: Postemergence
In short: as §1

[22] = test system: horseweed (Erigeron canadensis); assay: as above; settings: Postemergence
In short: as §1

[23] = test system: barnyardgrass (Echinochloa crus-galli); assay: as above; settings: Postemergence
In short: as §1

[24] = test system: kochia (Bassia scoparia); assay: as above; settings: Postemergence
In short: as §1

[25] = test system: ryegrass, Italian (italian ryegrass, Lolium multiflorum); assay: as above; settings: Postemergence
In short: as §1

[26] = test system: corn (Zea mays); assay: as above; settings: Postemergence
In short: as §1

[27] = test system: galium (catchweed bedstraw, Galium aparine); assay: as above; settings: Postemergence
In short: as §1

[28] = test system: green foxtail (Setaria viridis); assay: as above; settings: Postemergence
In short: as §1

[29] = 31 g ai/ha, greenhouse 10 days, 0 no effect, 100 complete control
[30] = 125 g ai/ha, 10 days, 0 is no effect, 100 is complete control

For `COC(=O)COC(=O)C1C=CC(NC(=O)C2(C)CN(c3cc(Cl)cc(Cl)c3)C(=O)O2)C1` (stereo not shown) [Compound 65], the “Wheat plant response rating (0-100)” value ([1]; 31 g ai/ha) was 50, the “Wheat plant response rating (0 to 100 scale)” value ([1]; 125 g ai/ha) was 90 and the “Blackgrass plant response rating (0-100)” value ([2]; 31 g ai/ha) was 50. For the same compound, the “Blackgrass plant response rating (0 to 100 scale)” value ([2]; 125 g ai/ha) was 70, the “Ragweed plant response rating (0-100)” value ([3]; 31 g ai/ha) was 10 and the “Ragweed plant response rating (0 to 100 scale)” value ([3]; 125 g ai/ha) was 70. For the same compound, the “Soybean plant response rating (0-100)” value ([4]; 31 g ai/ha) was 10, the “Soybean plant response rating (0 to 100 scale)” value ([4]; 125 g ai/ha) was 70 and the “Amaranth, Palmer plant response rating (0-100)” value ([5]; 31 g ai/ha) was 100. The “Amaranth, Palmer plant response rating (0 to 100 scale)” value ([5]; 125 g ai/ha) was 100, the “Oat, Wild plant response rating (0-100)” value ([6]; 31 g ai/ha) was 20 and the “Oat, Wild plant response rating (0 to 100 scale)” value (“Oat … (0 to 100 scale)” below) ([6]; 125 g ai/ha) was 80. For the same compound, the “Barnyardgrass plant response rating (0-100)” value ([7]; 31 g ai/ha) was 90, the “Barnyardgrass plant response rating (0 to 100 scale)” value ([7]; 125 g ai/ha) was 90 and the “Kochia plant response rating (0-100)” value ([8]; 31 g ai/ha) was 10. For the same compound, the “Kochia plant response rating (0 to 100 scale)” value ([8]; 125 g ai/ha) was 10, the “Ryegrass, Italian plant response rating (0-100)” value ([9]; 31 g ai/ha) was 70 and the “Ryegrass, Italian plant response rating (0 to 100 scale)” value (from here on “Ryegrass … (0 to 100 scale)”) ([9]; 125 g ai/ha) was 90. For the same compound, the “Corn plant response rating (0-100)” value ([10]; 31 g ai/ha) was 0, the “Corn plant response rating (0 to 100 scale)” value ([10]; 125 g ai/ha) was 70 and the “Foxtail, Green plant response rating (0-100)” value ([11]; 31 g ai/ha) was 90. The “Foxtail, Green plant response rating (0 to 100 scale)” value (from here on “Foxtail … (0 to 100 scale)”) ([11]; 125 g ai/ha) was 90, the “Plant response rating, Rice (0 to 100 scale, 0 is no effect and 100 is complete control)” value [12] was 60 and the “Plant response rating, Ducksalad (0 to 100 scale, 0 is no effect and 100 is complete control)” value [13] was 95. The “Plant response rating, Barnyardgrass (0 to 100 scale, 0 is no effect and 100 is complete control)” value [14] was 75, the “Plant response rating, Sedge, Umbrella (0 to 100 scale, 0 is no effect and 100 is complete control)” value [15] was 100 and the “Wheat plant response rating (0 to 100 scale)” value [16, 29] was 90. For the same compound, the “Wheat plant response rating (0 to 100 scale)” value [16, 30] was 90, the “Blackgrass plant response rating (0 to 100 scale)” value [17, 29] was 90 and the “Blackgrass plant response rating (0 to 100 scale)” value [17, 30] was 100. For the same compound, the “Ragweed plant response rating (0 to 100 scale)” value [18, 29] was 80, the “Ragweed plant response rating (0 to 100 scale)” value [18, 30] was 80 and the “Soybean plant response rating (0 to 100 scale)” value [19, 29] was 80. The “Soybean plant response rating (0 to 100 scale)” value [19, 30] was 80, the “Amaranth, Palmer / Pigweed, Palmer plant response rating (0 to 100 scale)” value [20, 29] was 90 and the “Amaranth, Palmer / Pigweed, Palmer plant response rating (0 to 100 scale)” value [20, 30] was 90. For the same compound, the “Oat … (0 to 100 scale)” value [21, 29] was 90, the “Oat … (0 to 100 scale)” value [21, 30] was 90 and the “Horseweed plant response rating (0 to 100 scale)” value [22, 29] was 70. The “Horseweed plant response rating (0 to 100 scale)” value [22, 30] was 70, the “Barnyardgrass plant response rating (0 to 100 scale)” value [23, 29] was 100 and the “Barnyardgrass plant response rating (0 to 100 scale)” value [23, 30] was 100. For the same compound, the “Kochia plant response rating (0 to 100 scale)” value [24, 29] was 80, the “Kochia plant response rating (0 to 100 scale)” value [24, 30] was 90 and the “Ryegrass … (0 to 100 scale)” value [25, 29] was 100. The “Ryegrass … (0 to 100 scale)” value [25, 30] was 100, the “Corn plant response rating (0 to 100 scale)” value [26, 29] was 100 and the “Corn plant response rating (0 to 100 scale)” value [26, 30] was 100. For the same compound, the “Galium plant response rating (0 to 100 scale)” value [27, 29] was 80, the “Galium plant response rating (0 to 100 scale)” value [27, 30] was 90 and the “Foxtail … (0 to 100 scale)” value [28, 29] was 90. For the same compound, the “Foxtail … (0 to 100 scale)” value [28, 30] was 90.
